The text below walks through data of ChEMBL document CHEMBL1145573, “Lead identification to generate isoquinolinedione inhibitors of insulin-like growth factor receptor (IGF-1R) for potential use in cancer treatment” (Bioorg Med Chem Lett, 2008).

Values after ≈ are worked out from the molar mass of the structure shown.

Series [1] can be described thus: Inhibition of IGFR.
A short description of series [2]: Ratio of IC50 for IR to IC50 for IGFR.
A short description of series [3]: Aqueous solubility at pH 7.4. Format: physicochemical.

Take `O=C1NC(=O)c2ccc(Nc3cccc(Cl)c3)cc2/C1=C/Nc1ccc(CN2CCCCC2)cc1`: the midpoint of inhibition in series [1], the IC50, lay at 2390 nM. That is a single-digit micromolar value.

As for `CN(C)Cc1ccc(N/C=C2\C(=O)NC(=O)c3ccc(Br)cc32)cc1`, the Ratio IC50 in series [2] was 0.58. In series [1], this compound yielded an IC50 of 7170 nM.

With `CCN(CC)Cc1ccc(N/C=C2\C(=O)NC(=O)c3ccc(Nc4ccc(C)cc4)cc32)cc1`, the Ratio IC50 in series [2] stood at 0.64. Further, the IC50 in series [1] came to 1160 nM.

Take `CC(=O)c1cccc(Nc2ccc3c(c2)/C(=C/Nc2ccc(CN4CCCCC4)cc2)C(=O)NC3=O)c1`: in series [2], the Ratio IC50 came out at 0.72. The IC50 in series [1] was 438 nM.

`CN(C)c1ccc(Nc2ccc3c(c2)/C(=C/Nc2ccc(CN4CCCCC4)cc2)C(=O)NC3=O)cc1` had an IC50 in series [1] above 10000 nM.

For the compound `Cc1ccc(Nc2ccc3c(c2)/C(=C/Nc2ccc(CN4CCCCC4)cc2)C(=O)NC3=O)cc1`, in series [2], the Ratio IC50 was found to be 1.14. In series [1], it took 498 nM to reach half-maximal inhibition (IC50).

On to `CC(=O)c1ccc(Nc2ccc3c(c2)/C(=C/Nc2ccc(CN4CCCCC4)cc2)C(=O)NC3=O)cc1`, for which the IC50 in series [1] is 5890 nM. That is a single-digit micromolar value.

As to `Nc1cccc(Nc2ccc3c(c2)/C(=C/Nc2ccc(CN4CCCCC4)cc2)C(=O)NC3=O)c1`, in series [1], the IC50 was above 10000 nM.

As for `CC(=O)c1cccc(Nc2ccc3c(c2)/C(=C/Nc2ccc(CN(C)C)cc2)C(=O)NC3=O)c1`, in series [2], the Ratio IC50 came to 0.87. This compound yielded a half-maximal inhibitory concentration (IC50) in series [1] of 887 nM.

In series [1], `COc1cccc(Nc2ccc3c(c2)/C(=C/Nc2ccc(CN4CCCCC4)cc2)C(=O)NC3=O)c1` came in with an IC50 of 1080 nM. This lies in the single-digit micromolar range.

In the case of `COc1ccc(Nc2ccc3c(c2)/C(=C/Nc2ccc(CN(C)C)cc2)C(=O)NC3=O)cc1`, the Ratio IC50 in series [2] was 0.69. The same compound came in with an IC50 in series [1] of 566 nM.

In series [1], `CCOC(=O)c1ccc(Nc2ccc3c(c2)/C(=C/Nc2ccc(CN4CCCCC4)cc2)C(=O)NC3=O)cc1` showed an IC50 above 10000 nM.

With `CC1CN(c2ccc(N/C=C3\C(=O)NC(=O)c4ccc(-c5ccoc5)cc43)cc2)CC(C)N1` (stereo unspecified), the Ratio IC50 in series [2] turned out to be 1. In series [1], this compound came in with an IC50 of 629 nM.

Compound `COc1cc(Nc2ccc3c(c2)/C(=C/Nc2ccc(CN4CCCCC4)cc2)C(=O)NC3=O)cc(C(F)(F)F)c1` gave an IC50 in series [1] above 10000 nM.

The compound `O=C1NC(=O)c2ccc(Br)cc2/C1=C/Nc1ccc(CN2CCCC2)cc1` came in with an IC50 in series [1] of 2420 nM.

In the case of `CC(=O)c1cccc(Nc2ccc3c(c2)/C(=C/Nc2ccc(N4CCN(C)CC4)cc2)C(=O)NC3=O)c1`, the solubility in series [3] stood at 1000 µg/mL (≈ 2020 µM). The Ratio IC50 in series [2] came out at 1.6. In addition, the IC50 in series [1] came out at 319 nM.

Take `O=C1NC(=O)c2ccc(Nc3cccc(C(F)(F)F)c3)cc2/C1=C/Nc1ccc(CN2CCCCC2)cc1`: the IC50 in series [1] is above 10000 nM.

With `CC(=O)c1cccc(Nc2ccc3c(c2)/C(=C/Nc2ccc(N4CC(C)NC(C)C4)cc2)C(=O)NC3=O)c1` (stereo unspecified), the Ratio IC50 in series [2] stood at 0.85. This compound showed an IC50 in series [1] of 540 nM.

For the compound `N#Cc1ccc(Nc2ccc3c(c2)/C(=C/Nc2ccc(CN4CCCCC4)cc2)C(=O)NC3=O)cc1`, the IC50 in series [1] worked out at 1330 nM.

For `N#Cc1cccc(Nc2ccc3c(c2)/C(=C/Nc2ccc(CN4CCCCC4)cc2)C(=O)NC3=O)c1`, the IC50 in series [1] is 1130 nM.

`O=C1NC(=O)c2ccc(Nc3cccc(F)c3)cc2/C1=C/Nc1ccc(CN2CCCCC2)cc1` gave a half-inhibitory concentration (IC50) in series [1] of 2630 nM.

As for `O=C1NC(=O)c2ccc(Nc3ccccc3)cc2/C1=C/Nc1ccc(CN2CCCCC2)cc1`, in series [2], the Ratio IC50 came out at 0.87. For the same compound, the midpoint of inhibition in series [1], the IC50, lay at 455 nM.

The compound `O=C1NC(=O)c2ccc(Nc3ccc(Cl)cc3)cc2/C1=C/Nc1ccc(CN2CCCCC2)cc1` returned an IC50 in series [1] above 10000 nM.

Turning to `COc1cccc(Nc2ccc3c(c2)/C(=C/Nc2ccc(CN(C)C)cc2)C(=O)NC3=O)c1`, the Ratio IC50 in series [2] came out at 0.48. The same compound yielded a half-maximal inhibitory concentration (IC50) in series [1] of 1390 nM.

In series [1], `O=C1NC(=O)c2ccc(Nc3cccc(Cl)c3)cc2/C1=C/Nc1ccccc1` gave an IC50 above 10000 nM.

On to `Cc1ccccc1Nc1ccc2c(c1)/C(=C/Nc1ccc(CN3CCCCC3)cc1)C(=O)NC2=O`, for which, in series [1], half-maximal inhibition (IC50) required 4140 nM.

On to `NC(=O)c1ccc(Nc2ccc3c(c2)/C(=C/Nc2ccc(CN4CCCCC4)cc2)C(=O)NC3=O)cc1`, for which inhibition in series [1] was half-maximal at 957 nM (IC50).

As for `O=C1NC(=O)c2ccc(Nc3ccc4c(c3)OCO4)cc2/C1=C/Nc1ccc(CN2CCCCC2)cc1`, the midpoint of inhibition in series [1], the IC50, lay at 894 nM.

The compound `COc1ccccc1Nc1ccc2c(c1)/C(=C/Nc1ccc(CN3CCCCC3)cc1)C(=O)NC2=O` had an IC50 in series [1] of 610 nM.

As for `CN(C)Cc1ccc(N/C=C2\C(=O)NC(=O)c3ccc(Nc4ccccc4)cc32)cc1`, in series [2], the Ratio IC50 amounted to 0.62. The compound further returned an IC50 in series [1] of 920 nM.

For `O=C1NC(=O)c2ccc(Br)cc2/C1=C/Nc1ccc(CN2CCCCC2)cc1`, 2890 nM corresponded to half-maximal inhibition in series [1] (IC50).

In the case of `O=C1NC(=O)c2ccc(Nc3ccc4[nH]ccc4c3)cc2/C1=C/Nc1ccc(CN2CCCCC2)cc1`, the 50% inhibitory concentration (IC50) in series [1] was above 10000 nM.

In the case of `COc1ccc(Nc2ccc3c(c2)/C(=C/Nc2ccc(CN4CCCCC4)cc2)C(=O)NC3=O)cc1`, the IC50 in series [1] was 971 nM.

As for `O=C1NC(=O)c2ccc(-c3ccoc3)cc2/C1=C/Nc1ccc(CN2CCCCC2)cc1`, in series [2], the Ratio IC50 came out at 0.75. Moreover, the IC50 in series [1] was found to be 715 nM.

On to `N#Cc1ccccc1Nc1ccc2c(c1)/C(=C/Nc1ccc(CN3CCCCC3)cc1)C(=O)NC2=O`, for which it took 4200 nM to reach half-maximal inhibition in series [1] (IC50). In other words, the single-digit micromolar range.

With `CN1CCN(c2ccc(N/C=C3\C(=O)NC(=O)c4ccc(NS(=O)(=O)c5ccccc5)cc43)cc2)CC1`, the Ratio IC50 in series [2] is 0.83. For the same compound, the IC50 in series [1] came out at 829 nM.

In turn, `Cc1cccc(Nc2ccc3c(c2)/C(=C/Nc2ccc(CN4CCCCC4)cc2)C(=O)NC3=O)c1` registered an IC50 in series [1] above 10000 nM.

`O=C1NC(=O)c2ccc(Nc3ccccc3Cl)cc2/C1=C/Nc1ccc(CN2CCCCC2)cc1` came in with a concentration for half-maximal inhibition (IC50) in series [1] of 1660 nM.

In series [1], `O=C1NC(=O)c2ccc(Nc3cccc4ncccc34)cc2/C1=C/Nc1ccc(CN2CCCCC2)cc1` gave a 50% inhibitory concentration (IC50) of 5200 nM.

In the case of `O=C1NC(=O)c2ccc(Nc3ccc4c(c3)CCC4)cc2/C1=C/Nc1ccc(CN2CCCCC2)cc1`, in series [1], the IC50 worked out at 7930 nM.

Take `COc1cccc(Nc2ccc3c(c2)/C(=C/Nc2ccccc2)C(=O)NC3=O)c1`: the IC50 in series [1] is above 10000 nM.
